The experiment concerns the target c-kit (Homo sapiens (Human), UniProt P10721). The experiment is described as follows: Mo7e cell proliferation assay (SCF dependent proliferation). Particulars: Mo7e cells stimulated with human recombinant SCF, 48 hours, 1% FBS. Type of experiment: cell-based. The procedure:
Compounds of Formula (I) and Formula (II) provided herein were assayed to measure their capacity to inhibit c-kit and PDGFR kinases using the appropriate assay described below: c-Kit inhibition was evaluated using the Mo7e cell proliferation assay, and PDGFR inhibition was evaluated using the Rat A10 cell proliferation assay and the Human TG/HA-VSMC cell proliferation assay.
Mo7e Cell Proliferation Assay
The compounds of Table 1 and Table 2 were tested for inhibition of SCF dependent proliferation using human Mo7e cells which endogenously express c-kit in a 384 well format. […] After 48 hours of incubation at 37° C., cell viability was measured by adding 25 uL of CellTiter Glo (Promega) to the cells and the luminescence was measured by a CLIPR CCD camera (Molecular Devices).
The IC50 value is given as that concentration of the test compound in question that provoke a response halfway between the baseline and maximum responses.

pIC50: −log10 of the molar value.

Sequence of c-kit (P10721 26-976): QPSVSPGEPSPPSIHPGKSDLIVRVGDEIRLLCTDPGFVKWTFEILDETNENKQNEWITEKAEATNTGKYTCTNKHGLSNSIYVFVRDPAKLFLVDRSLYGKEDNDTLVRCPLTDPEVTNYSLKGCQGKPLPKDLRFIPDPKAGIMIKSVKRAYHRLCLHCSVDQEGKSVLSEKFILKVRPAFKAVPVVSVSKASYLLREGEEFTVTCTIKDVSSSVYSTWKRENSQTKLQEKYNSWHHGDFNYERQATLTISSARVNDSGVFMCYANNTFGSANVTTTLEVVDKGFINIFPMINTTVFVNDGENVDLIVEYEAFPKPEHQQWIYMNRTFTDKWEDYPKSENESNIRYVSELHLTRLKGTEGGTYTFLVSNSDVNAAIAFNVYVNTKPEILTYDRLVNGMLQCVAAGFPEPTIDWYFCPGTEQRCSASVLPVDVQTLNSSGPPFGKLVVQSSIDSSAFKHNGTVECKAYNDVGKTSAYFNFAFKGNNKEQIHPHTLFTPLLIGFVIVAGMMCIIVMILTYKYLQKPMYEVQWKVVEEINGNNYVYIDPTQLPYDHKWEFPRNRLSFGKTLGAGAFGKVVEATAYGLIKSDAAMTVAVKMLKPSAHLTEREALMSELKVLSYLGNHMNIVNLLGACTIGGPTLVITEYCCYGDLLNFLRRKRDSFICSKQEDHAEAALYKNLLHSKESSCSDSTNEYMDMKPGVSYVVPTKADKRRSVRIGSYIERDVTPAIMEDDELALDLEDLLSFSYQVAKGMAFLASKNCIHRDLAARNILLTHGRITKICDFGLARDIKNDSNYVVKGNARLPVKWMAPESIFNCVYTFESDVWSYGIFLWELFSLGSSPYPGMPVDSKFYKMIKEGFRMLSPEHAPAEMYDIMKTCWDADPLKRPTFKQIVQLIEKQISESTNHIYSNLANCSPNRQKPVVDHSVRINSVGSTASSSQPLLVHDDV

As for `Cc1ccc(-c2noc(C3CC(F)(F)C3)n2)cc1NC(=O)c1cnc2ccc(COCC(F)(F)F)cn12` [F52], the pIC50 – broadly, the negative decadic logarithm of the IC50, by convention in mol/L – was 7.10.

For `CC(=O)CCc1ccc2ncc(C(=O)Nc3cc(-c4noc(C5CC(F)(F)C5)n4)ccc3C)n2c1` [F53, N-(5-(5-(3,3-difluorocyclobutyl)-1,2,4-oxadiazol-3-yl)-2-methylphenyl)-6-(3-oxobutyl)imidazo[1,2-a]pyridine-3-carboxamide], the pIC50 was 7.35.

Turning to `Cc1ccc(-c2noc(C3CC(F)(F)C3)n2)cc1NC(=O)c1cnc2ccc(CCC(C)(C)O)cn12` [F54, N-(5-(5-(3,3-difluorocyclobutyl)-1,2,4-oxadiazol-3-yl)-2-methylphenyl)-6-(3-hydroxy-3-methylbutyl)imidazo[1,2-a]pyridine-3-carboxamide], the pIC50 was 7.51.

With `Cc1ccc(-c2noc(CCC3(O)CC3)n2)cc1NC(=O)c1cnc2ccccn12` [F55a, N-(5-(5-(2-(1-hydroxycyclopropyl)ethyl)-1,2,4-oxadiazol-3-yl)-2-methylphenyl)imidazo[1,2-a]pyridine-3-carboxamide], the pIC50 was 7.04.

Take `Cc1ccc(-c2noc(C3CCC3)n2)cc1NC(=O)c1cnc2ccccn12` [F57]: the pIC50 is 7.64.

Take `Cc1ccc(-c2noc(C3CC(C)(C)C3)n2)cc1NC(=O)c1cnc2ccccn12` [F58]: the negative-log IC50 (pIC50) is 7.70.

In the case of `Cc1ccc(-c2noc(C3CC(F)(F)C3)n2)cc1NC(=O)c1cnc2cc(N3CCOCC3)ccn12` [F59, N-(5-(5-(3,3-difluorocyclobutyl)-1,2,4-oxadiazol-3-yl)-2-methylphenyl)-7-morpholinoimidazo[1,2-a]pyridine-3-carboxamide], the pIC50 was 8.15.

With `Cc1nnc(-c2ccc3ncc(C(=O)Nc4cc(-c5noc(C6CC(F)(F)C6)n5)ccc4F)n3c2)[nH]1` [F61, N-(5-(5-(3,3-difluorocyclobutyl)-1,2,4-oxadiazol-3-yl)-2-fluorophenyl)-6-(5-methyl-4H-1,2,4-triazol-3-yl)imidazo[1,2-a]pyridine-3-carboxamide], the pIC50 is 6.81.

Turning to `Cc1ccc(-c2noc(C3CC(F)(F)C3)n2)cc1NC(=O)c1cnc2ccc(CCN3CCN(C)CC3)cn12` [F63, N-(5-(5-(3,3-difluorocyclobutyl)-1,2,4-oxadiazol-3-yl)-2-methylphenyl)-6-(2-(4-methylpiperazin-1-yl)ethyl)imidazo[1,2-a]pyridine-3-carboxamide], the pIC50 is 7.09.

With `Cc1ccc(-c2noc(C3CC3(F)F)n2)cc1NC(=O)c1cnc2ccccn12` (centres unmarked) [F64, N-(5-(5-(2,2-difluorocyclopropyl)-1,2,4-oxadiazol-3-yl)-2-methylphenyl)imidazo[1,2-a]pyridine-3-carboxamide], the pIC50 was 7.28.

For the compound `Cc1ccc(-c2noc(C3CC(F)(F)C3)n2)cc1NC(=O)c1cnc2cc(-c3c[nH]nn3)ccn12` [F65, N-(5-(5-(3,3-difluorocyclobutyl)-1,2,4-oxadiazol-3-yl)-2-methylphenyl)-7-(1H-1,2,3-triazol-4-yl)imidazo[1,2-a]pyridine-3-carboxamide], the pIC50 was 7.89.

As to `Cc1ccc(-c2noc(C3CC(F)(F)C3)n2)cc1NC(=O)c1cnc2cc(-c3cn(CCO)nn3)ccn12` [F66, N-(5-(5-(3,3-difluorocyclobutyl)-1,2,4-oxadiazol-3-yl)-2-methylphenyl)-7-(1-(2-hydroxyethyl)-1H-1,2,3-triazol-4-yl)imidazo[1,2-a]pyridine-3-carboxamide], the pIC50 was 7.80.

Consider `Cc1cc(C)c(-c2noc(C3CC(F)(F)C3)n2)cc1NC(=O)c1cnc2ccccn12` [F67], for which the pIC50 is 7.31.

For the compound `Cc1ccc(-c2noc(C3CC(F)(F)C3)n2)cc1NC(=O)c1cnc2cc(N3CCOC3=O)ccn12` [F68], the pIC50 is 7.41.

Take `Cc1ccc(-c2noc(C3CCCC3)n2)cc1NC(=O)c1cnc2ccccn12` [F74]: the pIC50 was 7.48.

`Cc1ccc(-c2noc(C3CC4(CC(=O)C4)C3)n2)cc1NC(=O)c1cnc2ccccn12` [F75, N-(2-methyl-5-(5-(6-oxospiro[3.3]heptan-2-yl)-1,2,4-oxadiazol-3-yl)phenyl)imidazo[1,2-a]pyridine-3-carboxamide]: the pIC50 was 7.77.

On to `Cc1ccc(-c2noc(C3CC(F)(F)C3)n2)cc1NC(=O)c1cnc2cc(N3CCCC3=O)ccn12` [F76], for which the pIC50 was 7.43.

Consider `Cc1ccc(-c2noc(C3CC(F)(F)C3)n2)cc1NC(=O)c1cnc2ccc(COCC(F)F)cn12` [F77], for which the pIC50 was 7.49.

For the compound `Cc1nnc(-c2ccc3ncc(C(=O)Nc4cc(-c5noc(C6CC(F)(F)C6)n5)ccc4C)n3c2)[nH]1` [F79, N-(5-(5-(3,3-difluorocyclobutyl)-1,2,4-oxadiazol-3-yl)-2-methylphenyl)-6-(5-methyl-1H-1,2,4-triazol-3-yl)imidazo[1,2-a]pyridine-3-carboxamide], the pIC50 is 7.26.

On to `[2H]C([2H])([2H])c1ccn2c(C(=O)Nc3cc(-c4noc(C5CC(F)(F)C5)n4)ccc3C)cnc2c1` [F80], for which the pIC50 is 7.72.

Regarding `Cc1ccc(-c2noc(C3CC(F)(F)C3)n2)cc1NC(=O)c1cnc2ccc(N3CCOCC3)cn12` [F81], the pIC50 was 7.59.

`Cc1ccc(-c2noc(C3CC(F)(F)C3)n2)cc1NC(=O)c1cnc2ccc(-n3ccnc3)cn12` [F82]: the pIC50 was 7.11.

In the case of `Cc1ccc(-c2noc(C3CC(F)(F)C3)n2)cc1NC(=O)c1cnc2ccc(COCCF)cn12` [F83], the pIC50 was 7.54.

Turning to `COCc1n[nH]c(-c2ccc3ncc(C(=O)Nc4cc(-c5noc(C6CC(F)(F)C6)n5)ccc4C)n3c2)n1` [F84], the pIC50 is 7.66.

`Cc1ccc(-c2noc(C3CC3(F)F)n2)cc1NC(=O)c1cnc2ccc(COCC(F)(F)F)cn12` (centres unmarked) [F85]: the pIC50 was 7.16.

As to `Cc1ccc(-c2noc(C3CCC3)n2)cc1NC(=O)c1cnc2ccc(COCC(F)(F)F)cn12` [F86], the pIC50 is 7.31.

Regarding `Cc1ccn2c(C(=O)Nc3cc(-c4noc([C@H]5C[C@](O)(C(F)(F)F)C5)n4)ccc3C)cnc2c1` [F89], the pIC50 was 7.60.

For the compound `Cc1ccc(-c2noc([C@H]3C[C@](O)(C(F)(F)F)C3)n2)cc1NC(=O)c1cnc2ccc(F)cn12` [F90], the pIC50 is 7.40.

Regarding `Cc1ccc(-c2noc([C@H]3C[C@@H]3F)n2)cc1NC(=O)c1cnc2ccccn12` [F91], the pIC50 is 7.70.

On to `[2H]c1c([2H])c([2H])n2c(C(=O)Nc3cc(-c4noc(C5CC(F)(F)C5)n4)ccc3C)cnc2c1[2H]` [F92], for which the pIC50 was 7.46.

For the compound `Cc1ccc(C(=O)NC2CC(F)(F)C2)cc1NC(=O)c1cnc2ccccn12` [F93], the pIC50 was 7.62.

With `Cc1ccc(-c2noc(C3CC(O)(C(F)(F)F)C3)n2)cc1NC(=O)c1cnc2cc(F)ccn12` (centres unmarked) [F94], the pIC50 was 7.25.

On to `Cc1cn(-c2ccc3ncc(C(=O)Nc4cc(-c5noc(C6CC(F)(F)C6)n5)ccc4C)n3c2)cn1` [F95], for which the negative-log IC50 (pIC50) is 7.11.

Regarding `COCC1(c2nc(-c3ccc(C)c(NC(=O)c4cnc5ccc(F)cn45)c3)no2)CCC1` [F98], the pIC50 is 7.07.

`Cc1ccc(-c2noc([C@@H]3C[C@@H]3F)n2)cc1NC(=O)c1cnc2ccccn12` [F101]: the pIC50 was 7.17.

Regarding `Cc1ccn2c(C(=O)Nc3cc(-c4noc(COC5CC(F)(F)C5(F)F)n4)ccc3C)cnc2c1` (centres unmarked) [F102], the pIC50 is 8.05.

For `Cc1ccc2ncc(C(=O)Nc3cc(-c4noc(COC5CC(F)(F)C5(F)F)n4)ccc3C)n2c1` (centres unmarked) [F103], the pIC50 is 7.80.

In the case of `Cc1ccc(-c2noc(C3CC3)n2)cc1NC(=O)c1cnc2ccccn12` [F104], the pIC50 was 7.24.

The values above are taken from patent US9199981B2 (NOVARTIS AG, priority 2011, dated 2015).
